In US10526336B2, “Fused heteroaryl derivatives as orexin receptor antagonists” (Merck Sharp & Dohme Corp., priority 2014, dated 2020) one finds IC50 data, which are given here for 24 compounds.

The target in this experiment is human orexin-2 receptor (Homo sapiens (Human), UniProt O43614). The experiment can be described thus: FLIPR Ca2+ Flux Assay, orexin-2 receptor antagonism in CHO cells. The class given is cell-based. The conditions noted are these: CHO cells expressing the human orexin-2 receptor; agonist 70 pM Ala-6,12 orexin-A; read-out: hOX2 FLIPR IC50. Here is the method:
The utility of the compounds in accordance with the present invention as orexin receptor OX1R and/or OX2R antagonists may be readily determined without undue experimentation by methodology well known in the art, including the “FLIPR Ca^2+ Flux Assay” (Okumura et al., Biochem. Biophys. Res. Comm. 280:976-981, 2001). In a typical experiment the OX1 and OX2 receptor antagonistic activity of the compounds of the present invention was determined in accordance with the following experimental method. For intracellular calcium measurements, Chinese hamster ovary (CHO) cells expressing the rat orexin-1 receptor or the human orexin-2 receptor, are grown in Iscove's modified DMEM containing 2 mM L-glutamine, […], 1% hypoxanthine-thymidine supplement, 100 U/ml penicillin, 100 μg/ml streptomycin and 10% heat-inactivated fetal calf serum (FCS). The cells are seeded at 20,000 cells/well into Becton-Dickinson black 384-well clear bottom sterile plates coated with poly-D-lysine. All reagents are from GIBCO-Invitrogen Corp. The seeded plates are incubated overnight at 37° C. and 5% CO2. Ala-6,12 human orexin-A as the agonist is prepared as a 1 mM stock solution in 1% bovine serum albumin (BSA) and diluted in assay buffer (HBSS containing 20 mM HEPES, 0.1% BSA and 2.5 mM probenecid, pH7.4) for use in the assay at a final concentration of 70 pM. Test compounds are prepared as 10 mM stock solution in DMSO, then diluted in 384-well plates, first in DMSO, then assay buffer. On the day of the assay, cells are washed 3 times with 100 μl assay buffer and then incubated for 60 min (37° C., 5% CO2) in 60 μl assay buffer containing […] Fluo-4AM ester, 0.02% pluronic acid, and 1% BSA. The dye loading solution is then aspirated and cells are washed 3 times with 100 μl assay buffer. 30 μl of that same buffer is left in each well. Within the Fluorescent Imaging Plate Reader (FLIPR, Molecular Devices), test compounds are added to the plate in a volume of 25 μl, incubated for 5 min and finally 25 μl of agonist is added. Fluorescence is measured for each well at 1 second intervals for 5 minutes and the height of each fluorescence peak is compared to the height of the fluorescence peak induced by 70 pM Ala-6,12 orexin-A with buffer in place of antagonist. For each antagonist, IC50 value (the concentration of compound needed to inhibit 50% of the agonist response) is determined. Alternatively, compound potency can be assessed by a radioligand binding assay (described in Bergman et. al. Bioorg. Med. Chem. Lett. 2008, 18, 1425-1430) in which the inhibition constant (Ki) is determined in membranes prepared from CHO cells expressing either the OX1 or OX2 receptor. The intrinsic orexin receptor antagonist activity of a compound which may be used in the present invention may be determined by these assays.

human orexin-2 receptor, sequence (O43614 whole entry): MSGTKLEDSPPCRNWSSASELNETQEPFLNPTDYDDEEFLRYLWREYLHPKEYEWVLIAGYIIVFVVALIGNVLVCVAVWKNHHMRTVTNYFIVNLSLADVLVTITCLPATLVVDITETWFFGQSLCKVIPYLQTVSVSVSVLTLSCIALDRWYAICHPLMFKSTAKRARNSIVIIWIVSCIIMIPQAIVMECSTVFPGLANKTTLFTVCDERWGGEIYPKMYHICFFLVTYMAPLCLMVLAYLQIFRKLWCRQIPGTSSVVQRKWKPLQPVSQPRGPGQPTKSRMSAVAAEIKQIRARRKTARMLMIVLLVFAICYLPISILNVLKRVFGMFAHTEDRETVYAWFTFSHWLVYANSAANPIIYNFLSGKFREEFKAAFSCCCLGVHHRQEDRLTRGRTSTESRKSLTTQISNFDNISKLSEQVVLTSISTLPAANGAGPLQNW

Take `C[C@@H]1CC[C@@H](Nc2nccn3cc(C(F)(F)F)nc23)CN1C(=O)c1ccsc1-n1nccn1` [Example 23, (2-(2H-1,2,3-triazol-2-yl)thiophen-3-yl) ((2R,5R)-2-methyl-5-((2-(trifluoromethyl)imidazo[1,2-α]pyrazin-8-yl)amino)piperidin-1-yl)methanone]: the IC50 was 99.3 nM. Regarding `C[C@@H]1CC[C@@H](Oc2nccn3nccc23)CN1C(=O)c1ccccc1-n1ncnn1` [Example 76, (2-(2H-tetrazol-2-yl)phenyl)((2R,5R)-2-methyl-5-(pyrazolo[1,5-α]pyrazin-4-yloxy)piperidin-1-yl)methanone], the IC50 was 27.8 nM. Regarding `C[C@@H]1CC[C@@H](Oc2nccn3c(C(F)F)cnc23)CN1C(=O)c1ccccc1-n1nccn1` [Example 38, (2-(2H-1,2,3-triazol-2-yl)phenyl)((2R,5R)-5-((3-(difluoromethyl)imidazo[1,2-a]pyrazin-8-yl)oxy)-2-methylpiperidin-1-yl)methanone], the IC50 turned out to be 17.6 nM.

As for `Cc1cn2ccnc(O[C@@H]3CC[C@@H](C)N(C(=O)c4ccc(F)cc4-n4nccn4)C3)c2n1` [Example 10, (4-fluoro-2-(2H-1,2,3-triazol-2-yl)phenyl)((2R,5R)-2-methyl-5-((2-methylimidazo[1,2-α]pyrazin-8-yl)oxy)piperidin-1-yl)methanone], the IC50 was 31.2 nM. Regarding `C[C@@H]1CC[C@@H](Oc2nccn3c(C(F)F)cnc23)CN1C(=O)c1cccnc1OCC(F)F` [Example 51, (2-(2,2-difluoroethoxy)pyridin-3-yl)((2R,5R)-5-((3-(difluoromethyl)imidazo[1,2-α]pyrazin-8-yl)oxy)-2-methylpiperidin-1-yl) methanone], the IC50 came out at 31.8 nM. As for `Cc1cn2ccnc(O[C@@H]3CC[C@@H](C)N(C(=O)c4cscc4-c4ncccn4)C3)c2n1` [Example 13, ((2R,5R)-2-methyl-5-((2-methylimidazo[1,2-a]pyrazin-8-yl)oxy)piperidin-1-yl)(4-(pyrimidin-2-yl)thiophen-3-yl)methanone], the IC50 amounted to 63.7 nM. Next, `Cc1cn2ccnc(O[C@@H]3CC[C@@H](C)N(C(=O)c4ccsc4-n4nccn4)C3)c2n1` [Example 7, (2-(2H-1,2,3-triazol-2-yl)thiophen-3-yl)((2R,5R)-2-methyl-5-((2-methylimidazo[1,2-a]pyrazin-8-yl)oxy)piperidin-1-yl)methanone]: 27.4 nM; `C[C@@H]1CC[C@@H](Oc2nccn3c(C(F)F)cnc23)CN1C(=O)c1ccccc1-n1ncnn1` [Example 44, (2-(2H-tetrazol-2-yl)phenyl)((2R,5R)-5-((3-(difluoromethyl)imidazo[1,2-α]pyrazin-8-yl)oxy)-2-methylpiperidin-1-yl)methanone]: 9.6 nM. As to `C[C@@H]1CC[C@@H](Nc2nccn3c(Cl)cnc23)CN1C(=O)c1ccccc1-n1nccn1` [Example 30, (2-(2H-1,2,3-triazol-2-yl)phenyl)((2R,5R)-5-((3-chloroimidazo[1,2-a]pyrazin-8-yl)amino)-2-methylpiperidin-1-yl)methanone], the IC50 was determined as 13.9 nM. Turning to `C[C@@H]1CC[C@@H](Oc2nccn3nccc23)CN1C(=O)c1ccsc1-c1ncccn1` [Example 75, ((2R,5R)-2-methyl-5-(pyrazolo[1,5-α]pyrazin-4-yloxy)piperidin-1-yl) (2-(pyrimidin-2-yl)thiophen-3-yl) methanone], the IC50 was 20.6 nM. Next, `C[C@@H]1CC[C@@H](Oc2nccn3c(C(F)(F)F)cnc23)CN1C(=O)c1ncccc1-c1ccccc1` [Example 62, ((2R,5R)-2-methyl-5-((3-(trifluoromethyl)imidazo [1,2-α]pyrazin-8-yl)oxy)piperidin-1-yl)(3-phenylpyridin-2-yl)methanone]: 46.7 nM; `C[C@@H]1CC[C@@H](Oc2nccn3c(C(F)F)cnc23)CN1C(=O)c1ccccc1C1(C#N)CC1` [Example 42, 1-(2-((2R,5R)-5-((3-(difluoromethyl)imidazo[1,2-α]pyrazin-8-yl)oxy)-2-methylpiperidine-1-carbonyl)phenyl)cyclopropanecarbonitrile]: 5 nM; `C[C@@H]1CC[C@@H](Oc2nccn3c(C(F)F)cnc23)CN1C(=O)c1nccnc1-n1cccn1` [Example 46, (3-(1H-pyrazol-1-yl)pyrazin-2-yl)((2R,5R)-5-((3-(difluoromethyl)imidazo[1,2-α]pyrazin-8-yl)oxy)-2-methylpiperidin-1-yl)methanone]: 61.9 nM. With `CCCc1ccccc1C(=O)N1C[C@H](Oc2nccn3nccc23)CC[C@H]1C` [Example 82, ((2R,5R)-2-methyl-5-(pyrazolo [1,5-α]pyrazin-4-yloxy)piperidin-1-yl) (2-propylphenyl)methanone] the figure was 33.9 nM; with `C[C@@H]1CC[C@@H](Oc2nccn3c(C(O)C(F)F)cnc23)CN1C(=O)c1ccccc1-n1nccn1` (stereo partly drawn) [Example 67, (2-(2H-1,2,3-triazol-2-yl)phenyl)((2R,5R)-5-((3-(2,2-difluoro-1-hydroxyethyl)imidazo[1,2-a]pyrazin-8-yl)oxy)-2-methylpiperidin-1-yl)methanone], 182 nM; with `C[C@@H]1CC[C@@H](Oc2nccn3c(C(F)(F)F)cnc23)CN1C(=O)c1cccnc1OCC(F)(F)F` [Example 63, ((2R,5R)-2-methyl-5-((3-(trifluoromethyl)imidazo [1,2-α]pyrazin-8-yl)oxy)piperidin-1-yl) (2-(2,2,2-trifluoroethoxy)pyridin-3-yl)methanone], 28.2 nM. With `C[C@@H]1CC[C@@H](Nc2nccc3ncn(C)c23)CN1C(=O)c1ccccc1-n1nccn1` [Example 100, (2-(2H-1,2,3-triazol-2-yl)phenyl)((2R,5R)-2-methyl-5-((3-methyl-3H-imidazo[4,5-c]pyridin-4-yl)amino)piperidin-1-yl)methanone], the IC50 was determined as 95.8 nM. As to `C[C@@H]1CC[C@@H](Nc2nccc3c2cnn3C)CN1C(=O)c1ccccc1-n1nccn1` [Example 96, (2-(2H-1,2,3-triazol-2-yl)phenyl)((2R,5R)-2-methyl-5-((1-methyl-1H-pyrazolo[4,3-c]pyridin-4-yl)amino)piperidin-1-yl)methanone], the IC50 stood at 60 nM. With `C[C@@H]1CC[C@@H](Oc2nccn3nccc23)CN1C(=O)c1nccnc1-n1cccn1` [Example 80, (3-(1H-pyrazol-1-yl)pyrazin-2-yl)((2R,5R)-2-methyl-5-(pyrazolo[1,5-α]pyrazin-4-yloxy)piperidin-1-yl)methanone] the figure was 31.7 nM; with `C[C@@H]1CC[C@@H](Oc2nccn3c(C(F)F)cnc23)CN1C(=O)c1cccnc1OCC(F)(F)F` [Example 50, ((2R,5R)-5-((3-(difluoromethyl)imidazo[1,2-α]pyrazin-8-yl)oxy)-2-methylpiperidin-1-yl)(2-(2,2,2-trifluoroethoxy)pyridin-3-yl)methanone], 26.5 nM. For the compound `Cc1cn2ccnc(O[C@@H]3CC[C@@H](C)N(C(=O)c4ccccc4CS(C)(=O)=O)C3)c2n1` [Example 12, ((2R,5R)-2-methyl-5-((2-methylimidazo[1,2-α]pyrazin-8-yl)oxy)piperidin-1-yl)(2-((methylsulfonyl)methyl)phenyl)methanone], the IC50 was found to be 46.2 nM. With `CC(C)Oc1ncccc1C(=O)N1C[C@H](Oc2nccn3nccc23)CC[C@H]1C` [Example 83, (2-isopropoxypyridin-3-yl)((2R,5R)-2-methyl-5-(pyrazolo[1,5-α]pyrazin-4-yloxy)piperidin-1-yl)methanone], the IC50 is 49.1 nM.

Turning to `CC(C)Oc1ccccc1C(=O)N1C[C@H](Oc2nccn3nccc23)CC[C@H]1C` [Example 84, (2-isopropoxyphenyl)((2R,5R)-2-methyl-5-(pyrazolo[1,5-α]pyrazin-4-yloxy)piperidin-1-yl)methanone], the IC50 turned out to be 43.5 nM.

Consider `C[C@@H]1CC[C@@H](Oc2ccnc3ocnc23)CN1C(=O)c1ccccc1-n1ncnn1` [Example 92, (2-(2H-tetrazol-2-yl)phenyl)((2R,5R)-2-methyl-5-(oxazolo [5,4-b]pyridin-7-yloxy)piperidin-1-yl)methanone], for which the IC50 amounted to 36.7 nM.
